Measurements published in patent US8906860B2, “Methods and compositions inhibiting tumor cell proliferation” (The Board of Trustees of the University of Illinois, priority 2011, dated 2014).
Like-named read-outs stand apart in the source and are kept apart here. Square brackets hold non-standard residues; d marks the D form. Peptide text beside a SMILES is read from it.

How the values were obtained:
p53 null sarcoma cells [1] = assay: In vitro peptide treatment of p53 null sarcoma cells (viability, TUNEL); format: cell-based, mouse; details: 24 hours
[2] = system: p53 null thymic lymphoma cell lines L1 and L2; assay: In vitro peptide treatment of p53 null thymic lymphoma cells (viability, TUNEL); format: cell-based, mouse; details: one day after treatment
S2 cells = details: 24 hours
Procedure: TUNEL assay was used to measure apoptosis in S2 cells treated with WT-blocked, mutant-blocked or WT-unblocked (D-Arg)9-p19^ARF 26-44 peptides. (D-Arg)9-p19^ARF 26-44 peptide treatment of cells was performed in 8-well chamber slides for TUNEL staining. On Day 0, 20,000 cells per well were seeded in the 8-well chamber slides. On Day 1, slides were replenished with fresh media containing one of the following concentrations of either WT-blocked, mutant-blocked or WT-unblocked (D-Arg)9-p19^ARF 26-44 peptides: 10, 15, 25, 30, 40 and 70 μM for 24 hours. On Day 2, TUNEL staining was performed following the manufacture's protocol (ApopTag® Fluorescein In Situ Apoptosis Detection Kit from CHEMICON® International, S7110). The percent of apoptosis of S2 cells (±SD) was measured by counting the number of TUNEL-positive cells (green fluorescence) per 1,000 nuclei as visualized by DAPI (blue fluorescence) counterstaining. The experiment was repeated in a second experiment using the same protocol. Statistical analysis and EC50 calculation were performed using GraphPad Prism software.

[3] = system: p53 null thymic lymphoma cells; assay: Kidney colonization of intravenously injected p53 null thymic lymphoma cells in SCID mice; format: in vivo, mouse; details: 2.5 mg/kg intraperitoneal every other day, 10 injections
Procedure: (§1) These experiments were performed to determine if modifying the termini conferred any advantages on these peptides when administered to an animal. Both wild type ARF 26-44 (rrrrrrrrrKFVRSRRPRTASCALAFVN) (SEQ ID NO 10) and mutant ARF 37-44 (rrrrrrrrrSCALAFVN) (SEQ ID NO 21) peptides were synthesized by Genemed Synthesis Inc. (San Antonio, Tex.). The N-terminus of each peptide was fused with nine D-Arg(r) residues. Both wild type and mutant peptides were blocked with amidation on C-terminus and acetylation on N-terminus. For sarcoma cells, mice were treated with 5 mg/kg body weight of peptide every other day for 10 times. For lymphoma cells, mice were treated with 2.5 mg/kg body weight of peptide every other day for 10 times.
To test the therapeutic effect of the ARF-peptide on p53 null tumors in vivo, p53 null lymphoma/sarcoma cells were introduced into the circulation of SCID mice through intravenous injection. ICR SCID mice were obtained from Taconic Farms (Germantown, N.Y.). Both p53 null sarcoma and lymphoma cells were stably transduced before injection with lentivirus carrying a gene conferring luciferase expression. Specifically, cells were stably transduced with pFU-L2G luciferase construct obtained from Sanjiv Sam Gambhir (M. D., Ph.D) of Stanford University as optimized by Dr. Huiping Liu (Liu et al., Proc Natl Acad Sci USA, 107: 18115-18120). This construct enabled expression of both the bioluminescence and green fluorescence protein. eGFP positive cells were sorted by Beckman Coulter MoFlo. 3×10^6 cells were suspended in cold PBS and injected through the tail vein of SCID mice. Live animal imaging was performed using an IVIS Spectrum optical imaging machine (Caliper Life Sciences, Alameda, Calif.). […] Mice were randomized into three groups and were treated with PBS, mutant-peptide or the wild type ARF-peptide for 10 injections every other day by intraperitoneal injection. […] The mice were sacrificed and lung sections were analyzed for tumor colonies. […] For the p53 null thymic lymphoma cells, metastatic growth in kidney was observed, consistent with murine thymic lymphoma cells having a tendency to colonize kidney, liver and spleen (Aoudjit et al., 1998, Blood, 91: 623-629).

p53 null sarcoma cells [4] = assay: Lung colonization of intravenously injected p53 null sarcoma cells in SCID mice; format: in vivo, mouse; details: 5 mg/kg intraperitoneal every other day, 10 injections
Procedure: as §1
To test the therapeutic effect of the ARF-peptide on p53 null tumors in vivo, p53 null lymphoma/sarcoma cells were introduced into the circulation of SCID mice through intravenous injection. ICR SCID mice were obtained from Taconic Farms (Germantown, N.Y.). Both p53 null sarcoma and lymphoma cells were stably transduced before injection with lentivirus carrying a gene conferring luciferase expression. Specifically, cells were stably transduced with pFU-L2G luciferase construct obtained from Sanjiv Sam Gambhir (M. D., Ph.D) of Stanford University as optimized by Dr. Huiping Liu (Liu et al., Proc Natl Acad Sci USA, 107: 18115-18120). This construct enabled expression of both the bioluminescence and green fluorescence protein. eGFP positive cells were sorted by Beckman Coulter MoFlo. 3×10^6 cells were suspended in cold PBS and injected through the tail vein of SCID mice. Live animal imaging was performed using an IVIS Spectrum optical imaging machine (Caliper Life Sciences, Alameda, Calif.). […] Mice were randomized into three groups and were treated with PBS, mutant-peptide or the wild type ARF-peptide for 10 injections every other day by intraperitoneal injection. […] The mice were sacrificed and lung sections were analyzed for tumor colonies. […]

Question: With CC(=O)N[C@H](CCCNC(=N)N)C(=O)N[C@H](CCCNC(=N)N)C(=O)N[C@H](CCCNC(=N)N)C(=O)N[C@H](CCCNC(=N)N)C(=O)N[C@H](CCCNC(=N)N)C(=O)N[C@H](CCCNC(=N)N)C(=O)N[C@H](CCCNC(=N)N)C(=O)N[C@H](CCCNC(=N)N)C(=O)N[C@H](CCCNC(=N)N)C(=O)N[C@@H](CCCCN)C(=O)N[C@@H](Cc1ccccc1)C(=O)N[C@H](C(=O)N[C@@H](CCCNC(=N)N)C(=O)N[C@@H](CO)C(=O)N[C@@H](CCCNC(=N)N)C(=O)N[C@@H](CCCNC(=N)N)C(=O)N1CCC[C@H]1C(=O)N[C@@H](CCCNC(=N)N)C(=O)N[C@H](C(=O)N[C@@H](C)C(=O)N[C@@H](CO)C(=O)N[C@@H](CS)C(=O)N[C@@H](C)C(=O)N[C@@H](CC(C)C)C(=O)N[C@@H](C)C(=O)N[C@@H](Cc1ccccc1)C(=O)N[C@H](C(=O)N[C@@H](CC(N)=O)C(N)=O)C(C)C)[C@@H](C)O)C(C)C [WT Blocked, rrrrrrrrrKFVRSRRPRTASCALAFVN] (Ac-[dR][dR][dR][dR][dR][dR][dR][dR][dR]KFVRSRRPRTASCALAFVN-NH2) as the compound, how does the “Viability and apoptosis (TUNEL) after peptide treatment” value (p53 null sarcoma cells [1]) read?
Answer: A similar effect was observed in p53 null sarcoma cells

Question: What about the “Apoptosis of cells after peptide treatment” value [2] of the same compound?
Answer: underwent apoptosis

Question: And the “Number of viable cells versus mutant-peptide or PBS” value [2]?
Answer: much less

Question: And the “% of TUNEL Positive S2 Cells, Mean” value (S2 cells; Experiment 1, 10 μM/Well)?
Answer: 0.46%

Question: What about the “% of TUNEL Positive S2 Cells, Mean” value (S2 cells; Experiment 1, 25 μM/Well) of the same compound?
Answer: 20.27%

Question: And the “% of TUNEL Positive S2 Cells, Mean” value (S2 cells; Experiment 1, 30 μM/Well)?
Answer: 57.78%

Question: What about the “% of TUNEL Positive S2 Cells, Mean” value (S2 cells; Experiment 1, 40 μM/Well) of the same compound?
Answer: 98.48%

Question: And the “% of TUNEL Positive S2 Cells, Mean” value (S2 cells; Experiment 2, 10 μM/Well)?
Answer: 12.91%

Question: And the “% of TUNEL Positive S2 Cells, Mean” value (S2 cells; Experiment 2, 15 μM/Well)?
Answer: 13.6%

Question: And the “% of TUNEL Positive S2 Cells, Mean” value (S2 cells; Experiment 2, 25 μM/Well)?
Answer: 39.48%

Question: What about the “% of TUNEL Positive S2 Cells, Mean” value (S2 cells; Experiment 2, 30 μM/Well) of the same compound?
Answer: 47.52%

Question: What about the “% of TUNEL Positive S2 Cells, Mean” value (S2 cells; Experiment 2, 40 μM/Well) of the same compound?
Answer: 70.17%

Question: What about the “Apoptosis induction compared between peptides (TUNEL)” value (S2 cells; S2 cells, 10-70 μM) of the same compound?
Answer: induced significantly higher apoptosis compared to WT-unblocked and mutant-blocked

Question: What about the “Kidney tumor mass at sacrifice” value [3] of the same compound?
Answer: retained their original size and structure, with only a small white mass beginning to build up on the surface of the kidney

Question: And the “Luciferase signal from colonized lymphoma cells” value ([3]; around 20 days after inoculation)?
Answer: emitted very little fluorescence

Question: What about the “Number of lung tumor colonies larger than 100 μm×100 μm” value (p53 null sarcoma cells [4]) of the same compound?
Answer: A reduced number of tumor colonies

Question: What about the “Tumors on the surface of the lungs” value (p53 null sarcoma cells [4]) of the same compound?
Answer: fewer tumors were observed on the surface of the lungs

Question: What about the “Luciferase signal from mice” value (p53 null sarcoma cells [4]; 20 days after inoculation) of the same compound?
Answer: significantly reduced
